Source: ChEMBL document CHEMBL1777750, “Design strategies to target crystallographic waters applied to the Hsp90 molecular chaperone” (Bioorg Med Chem Lett, 2011)

Columns and labels:
Heat shock protein HSP90 = Heat shock protein HSP90 (Homo sapiens, UniProt P07900+P08238); experiment: Inhibition of HSP90 in human H1299 cells assessed as degradation of Akt protein after 24 hrs by luminex assay; format: cell-based
[1] = Displacement of tritium-labeled resorcinol amide ligand from HSP90 by scintillation proximity assay
[2] = Binding affinity to HSP90 by isothermal titration calorimetry assay

| IC50 (Heat shock protein HSP90) [µM] | Ki [1] [µM] | Kd [2] [µM] | Structure (SMILES) |
| --- | --- | --- | --- |
| 10 | 0.14 |  | COc1cc(-c2cc(C)nc(N)n2)c(Cl)cc1Cl |
| 1 |  |  | COc1cc(-c2nc(C)nc3[nH]cc(C#N)c23)c(Cl)cc1Cl |
| 0.7 |  |  | COc1cc(-c2nc(C)nc3[nH]c(C)c(C#N)c23)c(Cl)cc1Cl |
|  | 7.9 | 3.5 | COc1ccccc1-c1cc(C)nc(N)n1 |
| 45 | 0.3 |  | CC(C)(C)OC(=O)n1cccc1-c1cc(Cl)nc(N)n1 |
|  | 3.7 |  | Cc1cc(-c2cccn2C(=O)OC(C)(C)C)nc(N)n1 |
| > 10 | 22 |  | Cc1cc(-c2ccccc2)nc(N)n1 |
| 27 | 2.7 |  | COc1cc(Cl)ccc1-c1cc(C)nc(N)n1 |
| 10.5 | 0.35 | 0.104 | Cc1cc(-c2ccc(Cl)cc2Cl)nc(N)n1 |
|  | 10 |  | COc1cc(-c2cc(N)nc(C)n2)c(Cl)cc1Cl |
|  | 1.7 |  | COc1cc(-c2nc(C)nc3[nH]ccc23)c(Cl)cc1Cl |
|  | 0.2 |  | COc1cc(-c2nc(C)nc3[nH]cc(C(C)=O)c23)c(Cl)cc1Cl |
|  | 0.2 |  | COc1cc(-c2nc(C)nc3[nH]cc(F)c23)c(Cl)cc1Cl |
| 2 | 0.2 |  | COc1cc(-c2nc(C)nc3[nH]cc(Cl)c23)c(Cl)cc1Cl |
|  | 2 |  | COc1cc(-c2nc(C)nc3[nH]c(C)cc23)c(Cl)cc1Cl |
|  | 0.1 |  | COc1cc(-c2nc(C)nc3[nH]c(C)c(Cl)c23)c(Cl)cc1Cl |
| 0.5 | 0.015 |  | CCc1[nH]c2nc(C)nc(-c3cc(OC)c(Cl)cc3Cl)c2c1C#N |
